Data taken from ChEMBL document CHEMBL1275395, “Endoperoxide carbonyl falcipain 2/3 inhibitor hybrids: toward combination chemotherapy of malaria through a single chemical entity” (J Med Chem, 2010).
*1 amine or outer side, *2 acyl side, *3 side chain or, on linkers, in order; H or OH if unused. Where a SMILES comes first, the peptide text is derived from it. [ ]: non-standard residue; d: D form. The star is where a group is joined. hPhe = N[C@@H](CCc1ccccc1)C(=O)O; Morpholide = C1CN(*)CCO1; Cbz = O=C(OCc1ccccc1)*; CO = O=C([*:1])[*:2]

Experiments:
[1] = Inhibition of Plasmodium falciparum recombinant falcipain-3
[2] = Inhibition of Plasmodium falciparum recombinant falcipain-2
Plasmodium falciparum = assay: Antimalarial activity against Plasmodium falciparum 3D7 infected in human erythrocytes after 4 hrs; type: functional, organism-based; details: 3D7, 4 h

Compound: CCOC[C@@]1([C@@H](NC(=O)[C@H](CC(C)C)NC(=O)OCc2ccccc2)c2ccccc2)OOC2(O1)C1CC3CC(C1)CC2C3 (stereo partly drawn)
- IC50 [1]: > 25000 nM
- IC50 [2]: < 8580 nM

Compound: CCOCC(=O)[C@H](CCc1ccccc1)NC(=O)[C@H](CC(C)C)NC(=O)OCc1ccccc1
- IC50 [1]: 853 nM
- IC50 [2]: 2050 nM
- IC50 (Plasmodium falciparum): > 10000 nM

Compound: CC(C)C[C@H](NC(=O)N1CCOCC1)C(=O)N[C@H](C=O)CCc1ccccc1 ({Morpholide-CO}-Leu-[hPhe]-aldehyde)
- IC50 [1]: 215 nM
- IC50 [2]: 16.3 nM
- IC50 (Plasmodium falciparum): 9.3 nM

Compound: CC(C)C[C@H](NC(=O)OCc1ccccc1)C(=O)N[C@H](C=O)CCc1ccccc1 (Cbz-Leu-[hPhe]-aldehyde)
- IC50 [1]: 199 nM
- IC50 [2]: 1.4 nM
- IC50 (Plasmodium falciparum): 27.1 nM

Compound: CC(C)C[C@H](NC(=O)OCc1ccccc1)C(=O)N[C@@H](CCc1ccccc1)C(=O)COc1ccccc1
- IC50 [1]: 222 nM
- IC50 [2]: 438 nM
- IC50 (Plasmodium falciparum): 310 nM

Compound: COC[C@@]1([C@@H](NC(=O)[C@H](CC(C)C)NC(=O)OCc2ccccc2)c2ccccc2)OOC2(O1)C1CC3CC(C1)CC2C3 (stereo partly drawn)
- IC50 [1]: 44200 nM
- IC50 [2]: 1200 nM
- IC50 (Plasmodium falciparum): 2560 nM

Compound: COC[C@@]1([C@H](CCc2ccccc2)NC(=O)[C@H](CC(C)C)NC(=O)OCc2ccccc2)OOC2(O1)C1CC3CC(C1)CC2C3 (stereo partly drawn)
- IC50 [1]: < 19800 nM
- IC50 [2]: < 11500 nM
- IC50 (Plasmodium falciparum): 582 nM

Compound: COCC(=O)[C@H](Cc1ccccc1)NC(=O)[C@H](CC(C)C)NC(=O)OCc1ccccc1
- IC50 [1]: 8610 nM
- IC50 [2]: 1970 nM
- IC50 (Plasmodium falciparum): > 10000 nM

Compound: CC(C)C[C@H](NC(=O)OCc1ccccc1)C(=O)N[C@@H](CCc1ccccc1)[C@H]1OOC2(O1)C1CC3CC(C1)CC2C3 (stereo partly drawn)
- IC50 [1]: 947 nM
- IC50 [2]: 425 nM
- IC50 (Plasmodium falciparum): 55.5 nM

Compound: CCOCC(=O)[C@H](Cc1ccccc1)NC(=O)[C@H](CC(C)C)NC(=O)OCc1ccccc1
- IC50 [1]: 21600 nM
- IC50 [2]: 1960 nM
- IC50 (Plasmodium falciparum): > 10000 nM

Compound: COCC(=O)[C@H](CCc1ccccc1)NC(=O)[C@H](CC(C)C)NC(=O)OCc1ccccc1
- IC50 [1]: 5600 nM
- IC50 [2]: 7150 nM
- IC50 (Plasmodium falciparum): > 10000 nM

Compound: CCOC[C@@]1([C@H](CCc2ccccc2)NC(=O)[C@H](CC(C)C)NC(=O)OCc2ccccc2)OOC2(O1)C1CC3CC(C1)CC2C3 (stereo partly drawn)
- IC50 [1]: < 24200 nM
- IC50 [2]: < 8670 nM
- IC50 (Plasmodium falciparum): 572 nM

Compound: CC(C)C[C@@H](C(=O)N[C@@H](CCc1ccccc1)[C@H]1OOC2(O1)C1CC3CC(C1)CC2C3)N1CCOCC1 (stereo partly drawn)
- IC50 [1]: 332 nM
- IC50 [2]: 510 nM
- IC50 (Plasmodium falciparum): 35.3 nM
